# pIC50: −log10 of the molar value. *1 amine or outer side, *2 acyl side, *3 side chain or, on linkers, in order; H or OH if unused. Where a SMILES comes first, the peptide text is derived from it. Bridges are numbered along the chain shown (N, C = ends). [ ]: non-standard residue; d: D form. Gla = N[C@@H](CC(C(=O)O)C(=O)O)C(=O)O; X1 = O=C([C@]1(N[*:1])CC2CCC1C2)[*:2]
# Molecular target: T1, Growth factor receptor-bound protein 2 (Homo sapiens, UniProt P62993)
# Assay: Binding affinity against Growth factor receptor bound protein 2 using ELISA assay
row,Structure (SMILES),pIC50
1,CC(C)C[C@H]1NC(=O)[C@H](CC(C(=O)O)C(=O)O)NC(=O)C[S+]([O-])C[C@@H](C(N)=O)NC(=O)[C@H](Cc2ccc(O)cc2)NC(=O)[C@@H](CC(C)(C)C)NC(=O)CNC(=O)[C@@H](C(C)C)NC(=O)[C@H](CC(N)=O)NC(=O)C2(CCCCC2)NC(=O)[C@H](Cc2ccc(O)cc2)NC1=O (stereo in doubt; 12),7.13
2,CC(C)C[C@H]1NC(=O)[C@H](CC(C(=O)O)C(=O)O)NC(=O)CSC[C@@H](C(N)=O)NC(=O)[C@H](Cc2ccc(O)cc2)NC(=O)[C@@H](Cc2c(F)c(F)c(F)c(F)c2F)NC(=O)CNC(=O)[C@@H](C(C)C)NC(=O)[C@H](CC(N)=O)NC(=O)C2(CCCCC2)NC(=O)[C@H](Cc2ccc(O)cc2)NC1=O,6.62
3,CC(C)C[C@H]1NC(=O)[C@H](CC(C(=O)O)C(=O)O)NC(=O)C[S+]([O-])C[C@@H](C(N)=O)NC(=O)[C@H](Cc2ccc(O)cc2)NC(=O)[C@@H](C2CCCCC2)NC(=O)CNC(=O)[C@@H](C(C)C)NC(=O)[C@H](CC(N)=O)NC(=O)C2(CCCCC2)NC(=O)[C@H](Cc2ccc(O)cc2)NC1=O (stereo in doubt; 16),6.83
4,"CSCC[C@@H]1NC(=O)CNC(=O)[C@H](C(C)C)NC(=O)[C@H](CC(N)=O)NC(=O)[C@@H]2CCCN2C(=O)[C@H](Cc2ccc(O)cc2)NC(=O)[C@H](CC(C)C)NC(=O)[C@H](CCC(=O)O)NC(=O)CSC[C@@H](C(N)=O)NC(=O)[C@H](Cc2ccc(O)cc2)NC1=O (HELM PEPTIDE1{[O=C(C[*:3])[*:2]].E.L.Y.P.N.V.G.M.Y.C.[am]}$PEPTIDE1,PEPTIDE1,1:R3-11:R3$$$V2.0)",5.11
5,CC(C)C[C@H]1NC(=O)[C@H](CC(C(=O)O)C(=O)O)NC(=O)C[S+]([O-])C[C@@H](C(N)=O)NC(=O)[C@H](Cc2ccc(O)cc2)NC(=O)[C@@H](CC(C)(C)C)NC(=O)CNC(=O)[C@@H](C(C)C)NC(=O)[C@H](CC(N)=O)NC(=O)C2(CCCCC2)NC(=O)[C@H](Cc2ccc(O)cc2)NC1=O (stereo in doubt; 13),6.13
6,CC(C)C[C@H]1NC(=O)[C@H](CC(C(=O)O)C(=O)O)NC(=O)C[S+]([O-])C[C@@H](C(N)=O)NC(=O)[C@H](Cc2ccc(O)cc2)NC(=O)[C@@H](C2CCCCC2)NC(=O)CNC(=O)[C@@H](C(C)C)NC(=O)[C@H](CC(N)=O)NC(=O)C2(CCCCC2)NC(=O)[C@H](Cc2ccc(O)cc2)NC1=O (stereo in doubt; 17),5.85
7,CC(C)C[C@H]1NC(=O)[C@H](CC(C(=O)O)C(=O)O)NC(=O)CSC[C@@H](C(N)=O)NC(=O)[C@H](Cc2ccc(O)cc2)NC(=O)[C@@H](CC(C)(C)C)NC(=O)CNC(=O)[C@@H](C(C)C)NC(=O)[C@H](CC(N)=O)NC(=O)C2(CCCCC2)NC(=O)[C@H](Cc2ccc(O)cc2)NC1=O,6.61
8,CC(C)C[C@H]1NC(=O)[C@H](CC(C(=O)O)C(=O)O)NC(=O)CSC[C@@H](C(N)=O)NC(=O)[C@H](Cc2ccc(O)cc2)NC(=O)[C@@H](Cc2ccc3ccccc3c2)NC(=O)CNC(=O)[C@@H](C(C)C)NC(=O)[C@H](CC(N)=O)NC(=O)C2(CCCCC2)NC(=O)[C@H](Cc2ccc(O)cc2)NC1=O,6.57
9,CC(C)C[C@H]1NC(=O)[C@H](CC(C(=O)O)C(=O)O)NC(=O)CSC[C@@H](C(N)=O)NC(=O)[C@H](Cc2ccc(O)cc2)NC(=O)[C@@H](Cc2ccc(-c3ccccc3)cc2)NC(=O)CNC(=O)[C@@H](C(C)C)NC(=O)[C@H](CC(N)=O)NC(=O)C2(CCCCC2)NC(=O)[C@H](Cc2ccc(O)cc2)NC1=O,6.30
10,CC(C)C[C@H]1NC(=O)[C@H](CC(C(=O)O)C(=O)O)NC(=O)C[S+]([O-])C[C@@H](C(N)=O)NC(=O)[C@H](Cc2ccc(O)cc2)NC(=O)[C@@H](Cc2ccc3ccccc3c2)NC(=O)CNC(=O)[C@@H](C(C)C)NC(=O)[C@H](CC(N)=O)NC(=O)C2(CCCCC2)NC(=O)[C@H](Cc2ccc(O)cc2)NC1=O (stereo in doubt; 15),5.31
11,CC(C)C[C@H]1NC(=O)[C@H](CC(C(=O)O)C(=O)O)NC(=O)C[S+]([O-])C[C@@H](C(N)=O)NC(=O)[C@H](Cc2ccc(O)cc2)NC(=O)[C@@H](Cc2ccc3ccccc3c2)NC(=O)CNC(=O)[C@@H](C(C)C)NC(=O)[C@H](CC(N)=O)NC(=O)C2(CCCCC2)NC(=O)[C@H](Cc2ccc(O)cc2)NC1=O (stereo in doubt; 14),6.50

# Results, then the compound that gave them:
row,pIC50,Structure (SMILES)
1,6.28,CSCC[C@H]1NC(=O)CNC(=O)[C@@H](C(C)C)NC(=O)[C@H](CC(N)=O)NC(=O)C2(CCCCC2)NC(=O)[C@H](Cc2ccc(O)cc2)NC(=O)[C@@H](CC(C)C)NC(=O)[C@H](CC(C(=O)O)C(=O)O)NC(=O)CSC[C@@H](C(N)=O)NC(=O)[C@H](Cc2ccc(O)cc2)NC1=O
2,6.14,CSCC[C@@H]1NC(=O)CNC(=O)[C@H](C(C)C)NC(=O)[C@H](CC(N)=O)NC(=O)[C@@]2(CC3CCC2C3)NC(=O)[C@H](Cc2ccc(O)cc2)NC(=O)[C@H](CC(C)C)NC(=O)[C@H](CC(C(=O)O)C(=O)O)NC(=O)CSC[C@@H](C(N)=O)NC(=O)[C@H](Cc2ccc(O)cc2)NC1=O (some centres not stated) ({CH2CO}-[Gla]LY[X1]NVGMYC-NH2; thioether N-10)
3,< 4.00,"CSCC[C@@H]1NC(=O)CNC(=O)[C@H](C(C)C)NC(=O)[C@H](CC(N)=O)NC(=O)[C@H](CCC(=O)O)NC(=O)[C@H](Cc2ccc(O)cc2)NC(=O)[C@H](CC(C)C)NC(=O)[C@H](CCC(=O)O)NC(=O)CSC[C@@H](C(N)=O)NC(=O)[C@H](Cc2ccc(O)cc2)NC1=O (HELM PEPTIDE1{[O=C(C[*:3])[*:2]].E.L.Y.E.N.V.G.M.Y.C.[am]}$PEPTIDE1,PEPTIDE1,1:R3-11:R3$$$V2.0)"
4,5.82,CSCC[C@H]1NC(=O)CNC(=O)[C@@H](C(C)C)NC(=O)[C@H](CC(N)=O)NC(=O)[C@@H](CCCC(=O)O)NC(=O)[C@H](Cc2ccc(O)cc2)NC(=O)[C@@H](CC(C)C)NC(=O)[C@H](CC(C(=O)O)C(=O)O)NC(=O)CSC[C@@H](C(N)=O)NC(=O)[C@H](Cc2ccc(O)cc2)NC1=O
5,6.00,CSCC[C@H]1NC(=O)CNC(=O)[C@@H](C(C)C)NC(=O)[C@H](CC(N)=O)NC(=O)[C@@H](CCC(=O)O)NC(=O)[C@H](Cc2ccc(O)cc2)NC(=O)[C@@H](CC(C)C)NC(=O)[C@H](CC(C(=O)O)C(=O)O)NC(=O)CSC[C@@H](C(N)=O)NC(=O)[C@H](Cc2ccc(O)cc2)NC1=O

# Molecular target: T1, Growth factor receptor-bound protein 2
# Assay: Inhibitory activity against Growth factor receptor bound protein 2 using ELISA assay
row,pIC50,Structure (SMILES)
1,4.70,"CSCC[C@@H]1NC(=O)CNC(=O)[C@H](C(C)C)NC(=O)[C@H](CC(N)=O)NC(=O)[C@H](CCC(=O)O)NC(=O)[C@H](Cc2ccc(O)cc2)NC(=O)[C@H](CC(C)C)NC(=O)[C@H](CCC(=O)O)NC(=O)CSC[C@@H](C(N)=O)NC(=O)[C@H](Cc2ccc(O)cc2)NC1=O (HELM PEPTIDE1{[O=C(C[*:3])[*:2]].E.L.Y.E.N.V.G.M.Y.C.[am]}$PEPTIDE1,PEPTIDE1,1:R3-11:R3$$$V2.0)"

# From ChEMBL document CHEMBL1136083, “Potent Grb2-SH2 domain antagonists not relying on phosphotyrosine mimics” (Bioorg Med Chem Lett, 2003)
